Measurements reported in patent US5089623A, “Certain imidate insecticides” (Imperial Chemical Industries Plc, priority 1990, dated 1992).

Assays:
Assay type in all cases: in vivo
[1] = tested on: Housefly [Musca domestica]; assay: Housefly insecticidal test (HF); details: per 25 female houseflies, 48 hours
[2] = tested on: Tobacco Budworm [Heliothis virescens (Fabricius)] eggs; assay: Tobacco budworm egg test (TBW-E); details: percent in solution
Source text: Eggs: Paper towel patches of 2-day old eggs of the tobacco budworm were dipped in acetone solutions of the test compound and placed in petri dishes containing a portion of larval rearing medium. […] Test concentrations ranged from 0.1% downward.

[3] = tested on: Cabbage Looper [Trichoplusia ni (Hubner)]; assay: Cabbage looper test (CL); details: second-instar larvae, 3-5 days, percent in solution
Procedure: Test compounds were diluted in a 50-50 acetone-water solution. Cotyledons of hyzini squash (Calabacita abobrinha), approximately 1×1.5 inches, were immersed in the test solutions for 2-3 seconds and placed on a wire screen to dry. The dried leaves were placed in petri dishes containing a moistened piece of filter paper and infested with 5 second-instar cabbage looper larvae. The dishes were placed in a high humidity chamber. Mortality of the larvae was recorded 3-5 days later. Test concentrations ranged from 0.1% downward. The LC-50 value is expressed below in Table 3 under the heading "CL" in terms of percent of the test compound in solution.

Compound | LC50 HF [1] | LC50 TBW E [2] | LC50 CL [3]
CC(C)c1ccc(N=C(OCc2cccc(Oc3ccccc3)c2)C(C)(C)C)cc1 [Compound 165] | > 100 µg | > 0.1% | 0.007%
CSc1cccc(N=C(OCc2cccc(Oc3ccccc3)c2)C(C)C)c1 [Compound 166] | 22 µg | > 0.1% | 0.009%
Cc1ccc(N=C(OCc2cccc(Oc3ccccc3)c2)C(C)(C)C)cc1C [Compound 167] | > 100 µg | > 0.1% | 0.02%
CCOC(=O)c1cccc(N=C(OCc2cccc(Oc3ccccc3)c2)C(C)(C)C)c1 [Compound 168] | > 100 µg | > 0.1% | 0.1%
COc1ccc(N=C(OCc2cccc(Oc3ccccc3)c2)C(C)C)cc1OC [Compound 169] | 10 µg | > 0.1% | 0.009%
CC(=O)c1cccc(N=C(OCc2cccc(Oc3ccccc3)c2)C(C)C)c1 [Compound 170] | 37 µg | > 0.1% | 0.1%
CCOc1cccc(N=C(OCc2cccc(Oc3ccccc3)c2)C(C)C)c1 [Compound 171] | 80 µg | > 0.1% | 0.01%
CC(C)(C)C(=Nc1cccc([N+](=O)[O-])c1)OCc1cccc(Oc2ccccc2)c1 [Compound 175] | > 100 µg | > 0.1% | 0.018%
CC(C)C(=Nc1ccc2c(c1)OC(C)(C)O2)OCc1cccc(Oc2ccccc2)c1 [Compound 182] | 28 µg | 0.04% | 0.0006%
CC(C)C(=Nc1ccc2c(c1)OCO2)OCc1cccc(Oc2ccccc2F)c1 [Compound 183] | 10 µg | 0.075% | 0.00075%
CCCC(=Nc1ccc(OC)cc1)OCc1cccc(Oc2ccccc2)c1 [Compound 184] | 61 µg | > 0.1% | 0.024%
CCC(C)C(=Nc1ccc2c(c1)OCO2)OCc1cccc(Oc2ccccc2)c1 (stereo not drawn) [Compound 185] | 13 µg | 0.075% | 0.0006%
CC(C)C(=Nc1ccc2c(c1)OCO2)OCc1cccc(Oc2ccccc2F)c1 [Compound 190] | 7.5 µg | 0.023% | 0.0004%
CC(C)C(=Nc1cccc(C(F)(F)F)c1)OCc1cccc(Oc2cccc(F)c2)c1 [Compound 192] | 25 µg | 0.07% | 0.0012%
CC(C)C(=Nc1ccc(Cl)c(C(F)(F)F)c1)OCc1cccc(Oc2cccc(F)c2)c1 [Compound 195] | > 100 µg | > 0.1% | 0.002%
CC(C)C(=Nc1ccc(F)cc1)OCc1cccc(Oc2ccc(F)cc2)c1 [Compound 197] | > 100 µg | 0.05% | 0.0004%
CC(C)C(=Nc1cccc(F)c1)OCc1cccc(Oc2ccc(F)cc2)c1 [Compound 200] | 7.5 µg | 0.1% | 0.00075%
COc1cccc(N=C(OCc2cccc(Oc3ccc(F)cc3)c2)C(C)C)c1 [Compound 201] | 15 µg | > 0.1% | 0.004%
CC(C)C(=Nc1ccc(F)cc1)OCc1cccc(Oc2cccc(Cl)c2)c1 [Compound 205] | 50 µg | > 0.1% | 0.004%
CC(C)C(=Nc1ccc(F)cc1)OCc1cccc(Oc2ccc(F)cc2F)c1 [Compound 206] | 50 µg | > 0.1% | 0.0017%
CC(C)C(=Nc1ccc(Cl)c(Cl)c1)OCc1cccc(Oc2cccc(Cl)c2)c1 [Compound 207] | > 100 µg | > 0.1% | 0.008%
CC(C)C(=Nc1ccc(C#N)cc1)OCc1cccc(Oc2cccc(Cl)c2)c1 [Compound 208] | 27 µg | > 0.1% | 0.0035%
CCC(C)C(=Nc1ccc(Cl)c(Cl)c1)OCc1cccc(Oc2ccc(F)cc2)c1 (stereo not drawn) [Compound 211] | 61 µg | > 0.1% | 0.0017%
CC(C)C(=Nc1ccc(F)c(F)c1)OCc1cccc(Oc2ccc(C#N)cc2)c1 [Compound 212] | 20 µg | 0.045% | 0.0005%
CC(C)C(=Nc1ccc(Cl)c(Cl)c1)OCc1cccc(Oc2ccc(F)cc2F)c1 [Compound 213] | > 100 µg | > 0.1% | 0.00075%
CC(C)C(=Nc1ccc(F)c(F)c1)OCc1cccc(Oc2ccc(F)cc2F)c1 [Compound 214] | 19 µg | 0.04% | 0.0003%
CC(C)C(=Nc1ccc(F)c(Cl)c1)OCc1cccc(Oc2cc(F)cc(F)c2)c1 [Compound 215] | 75 µg | > 0.1% | 0.00075%

Compound | LC50 HF [1] | LC50 TBW E [2] | LC50 CL [3]
CC(C)C(=Nc1ccc(Cl)c(Cl)c1)OCc1cccc(Oc2ccc(F)c(F)c2)c1 [Compound 218] | 25 µg | 0.025% | 0.0003%
COc1ccc(Oc2cccc(COC(=Nc3ccc(F)cc3)C(C)C)c2)cc1 [Compound 220] | 85 µg | > 0.1% | 0.007%
COc1ccc(Oc2cccc(COC(=Nc3ccc(F)c(Cl)c3)C(C)C)c2)cc1 [Compound 221] | 62 µg | > 0.1% | 0.0027%
CC(C)C(=Nc1ccc(C#N)c(F)c1)OCc1cccc(Oc2ccc(F)cc2)c1 [Compound 222] | 32 µg | > 0.1% | 0.0015%
COc1ccc(Oc2cccc(COC(=Nc3ccc(Cl)c(Cl)c3)C(C)C)c2)cc1 [Compound 223] | 43 µg | > 0.1% | 0.008%
CC(C)(Cl)C(=Nc1ccc(F)c(Cl)c1)OCc1cccc(Oc2ccc(F)cc2)c1 [Compound 224] | > 100 µg | > 0.1% | 0.001%
CC(C)C(=Nc1ccc(C#N)cc1)OCc1cccc(Oc2ccc(F)cc2)c1 [Compound 227] | 10 µg | 0.1% | 0.0015%
CC(C)C(=Nc1cccc(Br)c1)OCc1cccc(Oc2ccc(F)cc2)c1 [Compound 229] | 20 µg | > 0.1% | 0.0005%
Cc1ccc(Oc2cccc(COC(=Nc3ccc(F)cc3)C(C)C)c2)cc1 [Compound 231] | > 100 µg | > 0.1% | 0.003%
CC(C)C(=Nc1c(F)c(F)c(F)c(F)c1F)OCc1cccc(Oc2ccc(F)cc2F)c1 [Compound 232] | > 100 µg | > 0.1% | 0.004%
CC(C)C(=Nc1ccc(C#N)c(F)c1)OCc1cccc(Oc2ccccc2)c1 [Compound 233] | 10 µg | 0.09% | 0.0017%
CC(C)C(=Nc1ccc(C(C)(C)C)cc1)OCc1cccc(Oc2ccc(F)cc2)c1 [Compound 235] | > 100 µg | > 0.1% | 0.004%
Cc1cc(N=C(OCc2cccc(Oc3ccc(F)cc3)c2)C(C)C)ccc1F [Compound 236] | 7 µg | 0.06% | 0.0018%
CC(C)C(=Nc1ccc(Cl)cc1)OCc1cccc(Oc2ccc(Br)cc2)c1 [Compound 237] | 50 µg | 0.075% | 0.0006%
CC(C)C(=Nc1ccc2c(c1)OC(C)(C)O2)OCc1cccc(Oc2ccc(Cl)cc2)c1 [Compound 241] | > 100 µg | > 0.1% | 0.0004%
CC(C)C(=Nc1ccc2c(c1)CCO2)OCc1cccc(Oc2ccccc2)c1 [Compound 243] | 9 µg | > 0.1% | 0.005%
CC(C)C(=Nc1ccc2c(c1)OCO2)OCc1cccc(Oc2ccc(C(F)(F)F)cc2)c1 [Compound 246] | 60 µg | > 0.1% | 0.004%
CC(C)C(=Nc1ccc(F)c(Cl)c1)OCc1cccc(Oc2ccc(C(F)(F)F)cc2)c1 [Compound 247] | > 100 µg | > 0.1% | 0.009%
COc1cc(N=C(OCc2cccc(Oc3ccccc3)c2)C(C)C)cc(OC)c1OC [Compound 248] | 40 µg | > 0.1% | 0.02%
Cc1cccc(N=C(OCc2cccc(Oc3ccccc3)c2)C(C)C)c1C [Compound 249] | 36 µg | 0.0365% | 0.0025%
Cc1ccc(C)c(N=C(OCc2cccc(Oc3ccccc3)c2)C(C)C)c1 [Compound 250] | 38 µg | 0.03% | 0.004%
CC(C)C(=Nc1ccc(Br)c(Br)c1)OCc1cccc(Oc2ccc(F)cc2)c1 [Compound 251] | 25 µg | 0.06% | 0.0005%
CC(C)C(=Nc1ccc(Br)c(Br)c1)OCc1cccc(Oc2ccccc2)c1 [Compound 252] | 34 µg | 0.04% | 0.0035%
CC(C)C(=Nc1cccc(Cl)c1)OCc1cccc(Oc2ccc(Br)cc2)c1 [Compound 260] | 22 µg | > 0.1% | 0.00075%
CCC(C)C(=Nc1ccc(F)c(Cl)c1)OCc1ccc(F)c(Oc2ccccc2)c1 (stereo not drawn) [Compound 261] | 24 µg | 0.05% | 0.001%
Cc1ccc(Cl)cc1N=C(OCc1cccc(Oc2ccccc2)c1)C(C)C [Compound 263] | > 100 µg | > 0.1% | 0.05%
